Test results from patent publication US20220132846A1, “1-PYRIDYL-PYRAZOLYL AMIDE COMPOUNDS AND PREPARATION AND USES THEREOF” (HUNAN RESEARCH INSTITUTE OF CHEMICAL INDUSTRY CO., LTD., priority 2019, published 2022).

What was measured:
[1] = tested on: Armyworm (Mythimna separata (Walker)); assay: Test against armyworm, Potter tower method; type: in vivo; settings: for mortality at 50 µg/mL / mortality at 500 µg/mL / mortality at 12.5 µg/mL: Mythimna separata, third-instar larvae, after 72 hours, read-out: Activity (mortality) level against armyworm; for mortality at 50 µg/mL: 50 mg/L; for mortality at 500 µg/mL: 500 mg/L; for mortality at 12.5 µg/mL: 12.5 mg/L
Procedure: Potter tower method: the test compound was dissolved in an appropriate solvent such as N,N-dimethylformamide, and then diluted with 0.2% aqueous solution of Tween 80 to the desired concentration, Those without the test compounds were set as blank controls. The fresh and tender corn leaves were taken and cut into fragments of basically the same size, then put into a Petri dish (diameter 90 mm) padded with filter paper in advance. Ten third-instar larvae of test insects were transferred into the dish and then placed under the Potter spray tower for being sprayed, each concentration treatment was sprayed at the amount of 1 mL and replicated 3 times. The dish was covered and then placed in a chamber for culture and observed regularly, after 72 hours, the dead insects was investigated and recorded and the mean mortality was calculated. […]

[2] = tested on: Aphis fabae; assay: Test against aphid, leaf dip method (Aphis fabae); type: in vivo; settings: foliar; for mortality at 12.5 µg/mL: 12.5 mg/L; for mortality at 12.5 µg/mL / mortality at 50 µg/mL / mortality at 200 µg/mL / mortality at 500 µg/mL: after 24 hours, read-out: Activity (mortality) level against Aphis fabae; for mortality at 50 µg/mL: 50 mg/L; for mortality at 200 µg/mL: 200 mg/L; for mortality at 500 µg/mL: 500 mg/L; for LC50: further test, read-out: LC50 against Aphis fabae
Procedure: For evaluating the activity of the compounds of this invention against Homoptera pests, Aphis fabae, wheat aphids, etc. were selected as the test insects, and the activity of the compounds of this invention against aphids was measured by leaf dip method indoors.
Leaf dip method (Aphis fabae): the test compound was dissolved in an appropriate solvent such as N,N-dimethylformamide, and then diluted with 0.2% aqueous solution of Tween 80 to the desired concentration, Those without the test compounds were set as blank controls, the treatments were replicated 3 times. Horsebean seedlings with no less than twenty 3-day-old Aphis fabae per plant was cut from the stem, 5 horsebean seedlings with the insects were dipped in the test solution for 5 seconds, then inserted into a sponge filled with water after sucked dry using filter paper, then covered with a glass tube and placed in a chamber for culture. After 24 hours, the number of living and dead insects were investigated and the results were averaged. […]

Row | Compound | mortality at 50 µg/mL [1] [%] | mortality at 500 µg/mL [1] [%] | mortality at 12.5 µg/mL [2] [%] | mortality at 50 µg/mL [2] [%] | mortality at 200 µg/mL [2] [%] | mortality at 500 µg/mL [2] [%] | mortality at 12.5 µg/mL [1] [%] | LC50 [2] [µg/mL] | Activity against armyworm, further screening (in words) ([1]; compared with chlorantraniliprole (D1))
1 | CCCNC(=O)c1cc(Cl)cc(Br)c1N(C)C(=O)c1cc(Br)nn1-c1ncccc1Cl [Compound 27, N-[2-bromo-4-chloro-6-[(propylamino)carbonyl]phenyl]-N-methyl-1-(3-chloro-2-pyridinyl)-3-bromo-1H-pyrazole-5-carboxamide] | 90 to 100 | 90 to 100 | 90 to 100 | 90 to 100 | 90 to 100 | 90 to 100 | – | – | –
2 | CC(C)NC(=O)c1cc(Cl)cc(Br)c1N(C)C(=O)c1ccnn1-c1ncccc1Cl [Compound 28, N-[2-bromo-4-chloro-6-[(isopropylamino)carbonyl]phenyl]-N-methyl-1-(3-chloro-2-pyridinyl)-1H-pyrazole-5-carboxamide] | 90 to 100 | 90 to 100 | – | – | 90 to 100 | 90 to 100 | 90 to 100 | – | –
3 | CN(C(=O)c1cc(Br)nn1-c1ncccc1Cl)c1c(Br)cc(Cl)cc1C(=O)NC1CC1 [Compound 29, N-[2-bromo-4-chloro-6-[(cyclopropylamino)carbonyl]phenyl]-N-methyl-1-(3-chloro-2-pyridinyl)-3-bromo-1H-pyrazole-5-carboxamide] | 90 to 100 | 90 to 100 | – | – | 90 to 100 | 90 to 100 | 90 to 100 | – | –
4 | CCCCNC(=O)c1cc(Cl)cc(Br)c1N(C)C(=O)c1ccnn1-c1ncccc1Cl [Compound 30, N-[2-bromo-4-chloro-6-[(butylamino)carbonyl]phenyl]-N-methyl-1-(3-chloro-2-pyridinyl)-1H-pyrazole-5-carboxamide] | – | 90 to 100 | – | – | 90 to 100 | 90 to 100 | – | – | –
5 | CN(C)C(=O)c1cc(Cl)cc(Br)c1N(C)C(=O)c1cc(Br)nn1-c1ncccc1Cl [Compound 31, N-[2-bromo-4-chloro-6-[(dimethylamino)carbonyl]phenyl]-N-methyl-1-(3-chloro-2-pyridinyl)-3-bromo-1H-pyrazole-5-carboxamide] | – | 90 to 100 | 90 to 100 | 90 to 100 | 90 to 100 | 90 to 100 | – | < 1 | –
6 | CCCN(C)C(=O)c1cc(Cl)cc(Br)c1N(C)C(=O)c1cc(Br)nn1-c1ncccc1Cl [Compound 33, N-[2-bromo-4-chloro-6-[(methyl(propyl)amino)carbonyl]phenyl]-N-methyl-1-(3-chloro-2-pyridinyl)-3-bromo-1H-pyrazole-5-carboxamide] | 90 to 100 | 90 to 100 | 90 to 100 | 90 to 100 | 90 to 100 | 90 to 100 | – | – | –
7 | CC(C)N(C)C(=O)c1cc(Cl)cc(Br)c1N(C)C(=O)c1cc(Br)nn1-c1ncccc1Cl [Compound 34, N-[2-bromo-4-chloro-6-[(methyl(isopropyl)amino)carbonyl]phenyl]-N-methyl-1-(3-chloro-2-pyridinyl)-3-bromo-1H-pyrazole-5-carboxamide] | 90 to 100 | 90 to 100 | 90 to 100 | 90 to 100 | 90 to 100 | 90 to 100 | – | < 1 | –
8 | CN(C(=O)c1cc(Br)nn1-c1ncccc1Cl)c1c(Br)cc(Cl)cc1C(=O)N(C)C1CC1 [Compound 35, N-[2-bromo-4-chloro-6-[(methyl(cyclopropyl)amino)carbonyl]phenyl]-N-methyl-1-(3-chloro-2-pyridinyl)-3-bromo-1H-pyrazole-5-carboxamide] | 90 to 100 | 90 to 100 | 90 to 100 | 90 to 100 | 90 to 100 | 90 to 100 | – | – | –
9 | CN(C(=O)c1cc(Br)nn1-c1ncccc1Cl)c1c(Br)cc(Cl)cc1C(=O)N(C)C(C)(C)C [Compound 36, N-[2-bromo-4-chloro-6-[(methyl(tert-butyl)amino)carbonyl]phenyl]-N-methyl-1-(3-chloro-2-pyridinyl)-3-bromo-1H-pyrazole-5-carboxamide] | 90 to 100 | 90 to 100 | – | 90 to 100 | 90 to 100 | 90 to 100 | – | – | –
10 | CCN(CC)C(=O)c1cc(Cl)cc(Br)c1N(C)C(=O)c1cc(Br)nn1-c1ncccc1Cl [Compound 37, N-[2-bromo-4-chloro-6-[(diethylamino)carbonyl]phenyl]-N-methyl-1-(3-chloro-2-pyridinyl)-3-bromo-1H-pyrazole-5-carboxamide] | 90 to 100 | 90 to 100 | 90 to 100 | 90 to 100 | 90 to 100 | 90 to 100 | 90 to 100 | – | –
11 | CCN(C(=O)c1cc(Br)nn1-c1ncccc1Cl)c1c(Br)cc(Cl)cc1C(=O)N(C)C [Compound 38, N-[2-bromo-4-chloro-6-[(dimethylamino)carbonyl]phenyl]-N-ethyl-1-(3-chloro-2-pyridinyl)-3-bromo-1H-pyrazole-5-carboxamide] | 90 to 100 | 90 to 100 | 90 to 100 | 90 to 100 | 90 to 100 | 90 to 100 | – | – | –
12 | CCN(C)C(=O)c1cc(Cl)cc(Br)c1N(CC)C(=O)c1cc(Br)nn1-c1ncccc1Cl [Compound 39, N-[2-bromo-4-chloro-6-[(methyl(ethyl)amino)carbonyl]phenyl]-N-ethyl-1-(3-chloro-2-pyridinyl)-3-bromo-1H-pyrazole-5-carboxamide] | 90 to 100 | 90 to 100 | 90 to 100 | 90 to 100 | 90 to 100 | 90 to 100 | – | – | –
13 | CCN(CC)C(=O)c1cc(Cl)cc(Br)c1N(CC)C(=O)c1cc(Br)nn1-c1ncccc1Cl [Compound 40, N-[2-bromo-4-chloro-6-[(diethylamino)carbonyl]phenyl]-N-ethyl-1-(3-chloro-2-pyridinyl)-3-bromo-1H-pyrazole-5-carboxamide] | 90 to 100 | 90 to 100 | 90 to 100 | 90 to 100 | 90 to 100 | 90 to 100 | 90 to 100 | – | excellent activity
14 | CCCN(C(=O)c1cc(Br)nn1-c1ncccc1Cl)c1c(Br)cc(Cl)cc1C(=O)N(C)C [Compound 41, N-[2-bromo-4-chloro-6-[(dimethylamino)carbonyl]phenyl]-N-propyl-1-(3-chloro-2-pyridinyl)-3-bromo-1H-pyrazole-5-carboxamide] | 90 to 100 | 90 to 100 | 90 to 100 | 90 to 100 | 90 to 100 | 90 to 100 | – | – | –
15 | CNC(=O)c1cc(Cl)cc(C)c1N(C)C(=O)c1cc(Br)nn1-c1ncccc1Cl [Compound 42, N-[2-methyl-4-chloro-6-[(methylamino)carbonyl]phenyl]-N-methyl-1-(3-chloro-2-pyridinyl)-3-bromo-1H-pyrazole-5-carboxamide] | 90 to 100 | 90 to 100 | 90 to 100 | 90 to 100 | 90 to 100 | 90 to 100 | 90 to 100 | – | –
16 | CCNC(=O)c1cc(Cl)cc(C)c1N(C)C(=O)c1cc(Br)nn1-c1ncccc1Cl [Compound 43, N-[2-methyl-4-chloro-6-[(ethylamino)carbonyl]phenyl]-N-methyl-1-(3-chloro-2-pyridinyl)-3-bromo-1H-pyrazole-5-carboxamide] | 90 to 100 | 90 to 100 | – | – | – | 90 to 100 | – | – | –
17 | Cc1cc(Cl)cc(C(=O)N(C)C)c1N(C)C(=O)c1cc(Br)nn1-c1ncccc1Cl [Compound 44, N-[2-methyl-4-chloro-6-[(dimethylamino)carbonyl]phenyl]-N-methyl-1-(3-chloro-2-pyridinyl)-3-bromo-1H-pyrazole-5-carboxamide] | 90 to 100 | 90 to 100 | – | – | – | 90 to 100 | – | – | –
18 | CCN(C)C(=O)c1cc(Cl)cc(C)c1N(C)C(=O)c1cc(Br)nn1-c1ncccc1Cl [Compound 45, N-[2-methyl-4-chloro-6-[(methyl(ethyl)amino)carbonyl]phenyl]-N-methyl-1-(3-chloro-2-pyridinyl)-3-bromo-1H-pyrazole-5-carboxamide] | – | 90 to 100 | – | – | – | 90 to 100 | – | – | –
